Measurements as given in ChEMBL document CHEMBL1128871, “Synthesis and in vitro cytotoxicity of ()-acetomycin and related analogs” (Bioorg Med Chem Lett, 1995).

Key:
B16 = assay: Tested for cytotoxic activity against B16 mouse melanoma cells in MTT assay; assay type: functional, cell-based
DA-3 cell line = assay: Tested for cytotoxic activity against DA-3 mouse mammary adenocarcinoma cells in MTT assay; assay type: functional, cell-based
HT-29 = assay: Tested for cytotoxic activity against HT-29 human colon adenocarcinoma cells in MTT assay; assay type: functional, cell-based
MCF7 [1] = assay: Tested for cytotoxic activity against MCF7-WT human breast adenocarcinoma cells in MTT assay; assay type: functional, cell-based
[2] = Half-life period was determined in mouse blood; assay type: ADME, organism-based
MCF7 [3] = assay: Tested for cytotoxic activity against MCF7-WT human breast adenocarcinoma cells in MTT assay.; assay type: functional, cell-based

Row | half-life [2] | SMILES | IC50 (B16) | IC50 (DA-3 cell line) | IC50 (HT-29) | IC50 (MCF7 [1]) | IC50 (MCF7 [3])
1 |  | CC(=O)O[C@@H]1OC(=O)[C@](O)(C(C)=O)[C@@H]1C | > 50 µM | > 50 µM | > 50 µM | > 50 µM | 
2 |  | CC(=O)O[C@@H]1OC(=O)[C@@](C)(C(C)=O)[C@@H]1C | 14 µM | 9 µM | 12 µM | > 10 µM | 
3 | < 5 min | CC(=O)O[C@@H]1OC(=O)[C@](C)(C(C)=O)[C@@H]1C | 4 µM | 7 µM | 5 µM | 6 µM | 
4 | < 5 min | CC(=O)[C@@]1(C)C(=O)O[C@@H](OC(=O)C(C)(C)C)[C@H]1C | 2 µM | 1 µM | 2 µM | 3 µM | 
5 |  | CC(=O)O[C@@H]1OC(=O)[C@](Cc2ccccc2)(C(C)=O)[C@@H]1C | 41 µM | 45 µM | 40 µM |  | 48 µM
6 |  | CC(=O)O[C@@H]1OC(=O)[C@](OC(=O)c2ccccc2)(C(C)=O)[C@@H]1C | 6 µM | 3 µM | 8 µM | 22 µM | 
7 |  | CC(=O)O[C@@H]1OC(=O)[C@@](C(C)=O)(C2SCCCS2)[C@@H]1C | > 50 µM | > 50 µM | > 50 µM | > 50 µM | 
8 |  | CC(=O)CC[C@]1(C(C)=O)C(=O)O[C@@H](OC(C)=O)[C@H]1C | 7 µM | 8 µM | 7 µM | 6 µM | 
9 |  | CC(=O)O[C@@H]1OC(=O)[C@](Br)(C(C)=O)[C@@H]1C | 9 µM | 6 µM | 12 µM | 17 µM | 
10 |  | CC(=O)O[C@@H]1OC(=O)[C@](C)(C(=O)CBr)[C@@H]1C | 6 µM | 4 µM | 6 µM | 4 µM | 
11 |  | CC(=O)O[C@@H]1OC(=O)[C@@](O)(C(C)=O)[C@@H]1C | > 50 µM | > 50 µM | > 50 µM | > 50 µM | 
12 |  | CC(=O)O[C@@H]1OC(=O)[C@](OC(C)=O)(C(C)=O)[C@@H]1C | > 50 µM | > 50 µM | > 50 µM | > 50 µM | 
13 |  | CCO[C@@H]1OC(=O)[C@@](C)(C(C)=O)[C@@H]1C | > 50 µM | > 50 µM | > 50 µM | > 50 µM | 
14 |  | CC(=O)O[C@@H]1OC(=O)[C@@](C)(C(=O)c2ccccc2)[C@@H]1C | 7 µM | 15 µM | 7 µM |  | 15 µM
15 |  | CC(=O)O[C@@H]1OC(=O)[C@@](C)(C(C)=O)[C@@H]1C(C)C | > 50 µM | > 50 µM | > 50 µM | > 50 µM | 
16 |  | CC(=O)[C@]1(C)C(=O)O[C@@H](OC(=O)c2ccccc2)[C@H]1C | 5 µM | 2 µM | 6 µM | 8 µM | 
17 | < 5 min | CC(=O)[C@@]1(C)C(=O)O[C@@H](OC(=O)c2ccccc2)[C@H]1C | 1 µM | 1 µM | 1 µM | 3 µM | 
18 |  | CCO[C@@H]1OC(=O)[C@](C)(C(C)=O)[C@@H]1C | > 50 µM | > 50 µM | > 50 µM | > 50 µM | 
19 |  | CC(=O)O[C@@H]1OC(=O)[C@@](Cc2ccccc2)(C(C)=O)[C@@H]1C | 45 µM | 44 µM | 39 µM | 51 µM | 
20 |  | CC(=O)O[C@@H]1OC(=O)[C@](C)(C(C)=O)[C@@H]1C(C)C | > 50 µM | > 50 µM | > 50 µM | > 50 µM | 
21 |  | CC(=O)O[C@@H]1OC(=O)[C@@](OC(C)=O)(C(C)=O)[C@@H]1C | > 50 µM | > 50 µM | > 50 µM | > 50 µM | 
22 |  | CC(=O)O[C@@H]1OC(=O)[C@@H](C(C)=O)[C@@H]1C | > 50 µM | > 50 µM | > 50 µM | > 50 µM | 
23 |  | CC(=O)[C@]1(C)C(=O)O[C@@H](OC(=O)C(C)(C)C)[C@H]1C | 10 µM | 4 µM | 9 µM | 7 µM | 
